According to PubChem BioAssay AID248 (DTP/NCI, 2004):
“And” between values parts separate entries of the source, which are not always exact repeats. Equal entries are not always repeated. Inconclusive results and toxic doses are left out.

Test system: L1210 leukemia ip in BDF1 mice, survival T/C
Assay: NCI In Vivo Anticancer Drug Screen. Data for tumor model L1210 Leukemia (intraperitoneal) in B6D2F1 (BDF1) mice
Details: higher = longer survival
Method in brief: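 Transplanted-tumor mice were given test agent; controls received vehicle only. Survival readings from the two groups were divided (treated over control).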

[1] = endpoint: mean survival time, dose: 100.0 mg/kg/injection, schedule: Q04DX003 (ip), vehicle: saline with Tween-80
[2] = endpoint: mean survival time, dose: 200.0 mg/kg/injection, schedule: Q04DX003 (ip), vehicle: saline with Tween-80

**Q.** Which results are given for `Oc1cc(CN(CCCl)CCCl)c(O)cc1CN(CCCl)CCCl`?
**A.** T/C (endpoint: mean survival time, dose: 0.06 mg/kg/injection, schedule: Q#A X Z (ip), vehicle: saline): 118 % of control; T/C (endpoint: mean survival time, dose: 0.13 mg/kg/injection, schedule: Q01DX Z (ip), vehicle: saline): 120 % of control; T/C (endpoint: mean survival time, dose: 0.25 mg/kg/injection, schedule: Q01DX001 (ip), vehicle: saline): 111 % of control; T/C (endpoint: mean survival time, dose: 0.25 mg/kg/injection, schedule: Q01DX Z (ip), vehicle: saline): 122 % of control; T/C (endpoint: mean survival time, dose: 0.25 mg/kg/injection, schedule: Q07DX003 (ip), vehicle: saline): 158 % of control; T/C (endpoint: mean survival time, dose: 0.5 mg/kg/injection, schedule: Q01DX001 (ip), vehicle: saline): 104 % of control; T/C (endpoint: mean survival time, dose: 0.5 mg/kg/injection, schedule: Q01DX010 (ip), vehicle: saline): 121 % of control; T/C (endpoint: mean survival time, dose: 0.5 mg/kg/injection, schedule: Q07DX003 (ip), vehicle: saline): 104 % of control; T/C (endpoint: mean survival time, dose: 0.5 mg/kg/injection, schedule: Q#A X Z (ip), vehicle: saline): 122 % of control; T/C (endpoint: mean survival time, dose: 1.0 mg/kg/injection, schedule: Q01DX001 (ip), vehicle: saline): 107 % of control and 113 % of control; T/C (endpoint: mean survival time, dose: 1.25 mg/kg/injection, schedule: Q01DX009 (ip), vehicle: saline): 107 % of control and 118 % of control; T/C (endpoint: mean survival time, dose: 2.0 mg/kg/injection, schedule: Q01DX001 (ip), vehicle: saline): 111 % of control and 120 % of control; T/C (endpoint: mean survival time, dose: 2.0 mg/kg/injection, schedule: Q01DX006 (iv), vehicle: saline): 114 % of control; T/C (endpoint: mean survival time, dose: 2.0 mg/kg/injection, schedule: Q01DX Z (im), vehicle: saline): 108 % of control; T/C (endpoint: mean survival time, dose: 2.0 mg/kg/injection, schedule: Q01DX Z (sc), vehicle: saline): 108 % of control; T/C (endpoint: mean survival time, dose: 2.5 mg/kg/injection, schedule: Q01DX009 (ip), vehicle: saline): 119 % of control; T/C (endpoint: mean survival time, dose: 3.0 mg/kg/injection, schedule: Q03DX006 (ip), vehicle: saline): 106 % of control; T/C (endpoint: mean survival time, dose: 4.0 mg/kg/injection, schedule: Q01DX001 (ip), vehicle: saline): 108 % of control; T/C (endpoint: mean survival time, dose: 4.0 mg/kg/injection, schedule: Q01DX006 (iv), vehicle: saline): 117 % of control; T/C (endpoint: mean survival time, dose: 4.0 mg/kg/injection, schedule: Q01DX010 (ip), vehicle: saline): 119 % of control; T/C (endpoint: mean survival time, dose: 4.0 mg/kg/injection, schedule: Q01DX Z (im), vehicle: saline): 120 % of control; T/C (endpoint: mean survival time, dose: 4.0 mg/kg/injection, schedule: Q01DX Z (sc), vehicle: saline): 114 % of control; T/C (endpoint: mean survival time, dose: 5.0 mg/kg/injection, schedule: Q01DX009 (ip), vehicle: saline): 122 % of control; T/C (endpoint: mean survival time, dose: 5.0 mg/kg/injection, schedule: Q01DX010 (ip), vehicle: saline): 117 % of control; T/C (endpoint: mean survival time, dose: 8.0 mg/kg/injection, schedule: Q01DX001 (ip), vehicle: saline): 104 % of control and 113 % of control; T/C (endpoint: mean survival time, dose: 8.0 mg/kg/injection, schedule: Q01DX006 (iv), vehicle: saline): 123 % of control; T/C (endpoint: mean survival time, dose: 8.0 mg/kg/injection, schedule: Q01DX Z (im), vehicle: saline): 108 % of control; T/C (endpoint: mean survival time, dose: 8.0 mg/kg/injection, schedule: Q01DX Z (oral), vehicle: saline): 117 % of control; T/C (endpoint: mean survival time, dose: 8.0 mg/kg/injection, schedule: Q01DX Z (sc), vehicle: saline): 111 % of control; T/C (endpoint: mean survival time, dose: 8.0 mg/kg/injection, schedule: Q#A X Z (ip), vehicle: saline): 102 % of control; T/C (endpoint: mean survival time, dose: 10.0 mg/kg/injection, schedule: Q01DX009 (ip), vehicle: saline): 93 % of control and 96 % of control; T/C (endpoint: mean survival time, dose: 10.0 mg/kg/injection, schedule: Q01DX010 (ip), vehicle: saline): 89 % of control; T/C (endpoint: mean survival time, dose: 16.0 mg/kg/injection, schedule: Q01DX001 (ip), vehicle: saline): 122 % of control and 124 % of control; T/C (endpoint: mean survival time, dose: 16.0 mg/kg/injection, schedule: Q01DX006 (iv), vehicle: saline): 123 % of control; T/C (endpoint: mean survival time, dose: 16.0 mg/kg/injection, schedule: Q01DX Z (im), vehicle: saline): 117 % of control; T/C (endpoint: mean survival time, dose: 16.0 mg/kg/injection, schedule: Q01DX Z (ip), vehicle: saline): 103 % of control; T/C (endpoint: mean survival time, dose: 16.0 mg/kg/injection, schedule: Q01DX Z (oral), vehicle: saline): 109 % of control; T/C (endpoint: mean survival time, dose: 16.0 mg/kg/injection, schedule: Q01DX Z (sc), vehicle: saline): 120 % of control; T/C (endpoint: mean survival time, dose: 16.0 mg/kg/injection, schedule: Q07DX003 (ip), vehicle: saline): 114 % of control; T/C (endpoint: mean survival time, dose: 24.0 mg/kg/injection, schedule: Q03DX006 (ip), vehicle: saline): 124 % of control; T/C (endpoint: mean survival time, dose: 32.0 mg/kg/injection, schedule: Q01DX001 (ip), vehicle: saline): 120 % of control; T/C (endpoint: mean survival time, dose: 32.0 mg/kg/injection, schedule: Q01DX Z (im), vehicle: saline): 93 % of control; T/C (endpoint: mean survival time, dose: 32.0 mg/kg/injection, schedule: Q01DX Z (oral), vehicle: saline): 111 % of control; T/C (endpoint: mean survival time, dose: 32.0 mg/kg/injection, schedule: Q01DX Z (sc), vehicle: saline): 110 % of control; T/C (endpoint: mean survival time, dose: 48.0 mg/kg/injection, schedule: Q03DX006 (ip), vehicle: saline): 104 % of control; T/C (endpoint: mean survival time, dose: 64.0 mg/kg/injection, schedule: Q01DX001 (ip), vehicle: saline): 108 % of control and 110 % of control; T/C (endpoint: mean survival time, dose: 64.0 mg/kg/injection, schedule: Q01DX Z (im), vehicle: saline): 95 % of control; T/C (endpoint: mean survival time, dose: 64.0 mg/kg/injection, schedule: Q01DX Z (oral), vehicle: saline): 105 % of control; T/C (endpoint: mean survival time, dose: 64.0 mg/kg/injection, schedule: Q01DX Z (sc), vehicle: saline): 87 % of control; T/C (endpoint: mean survival time, dose: 64.0 mg/kg/injection, schedule: Q07DX003 (ip), vehicle: saline): 106 % of control; T/C (endpoint: mean survival time, dose: 128.0 mg/kg/injection, schedule: Q01DX001 (ip), vehicle: saline): 108 % of control and 114 % of control; T/C (endpoint: mean survival time, dose: 256.0 mg/kg/injection, schedule: Q01DX001 (ip), vehicle: saline): 119 % of control; T/C (endpoint: mean survival time, dose: 16.0 micrograms/kg/injection, schedule: Q03DX003 (ip), vehicle: saline): 104 % of control; T/C (endpoint: mean survival time, dose: 32.0 micrograms/kg/injection, schedule: Q03DX003 (ip), vehicle: saline): 98 % of control; T/C (endpoint: mean survival time, dose: 37.5 micrograms/kg/injection, schedule: Q07DX002 (ip), vehicle: saline): 102 % of control; T/C (endpoint: mean survival time, dose: 62.5 micrograms/kg/injection, schedule: Q03DX003 (ip), vehicle: saline): 107 % of control; T/C (endpoint: mean survival time, dose: 75.0 micrograms/kg/injection, schedule: Q07DX002 (ip), vehicle: saline): 101 % of control; T/C (endpoint: mean survival time, dose: 125.0 micrograms/kg/injection, schedule: Q03DX003 (ip), vehicle: saline): 102 % of control; T/C (endpoint: mean survival time, dose: 150.0 micrograms/kg/injection, schedule: Q07DX002 (ip), vehicle: saline): 104 % of control; T/C (endpoint: mean survival time, dose: 300.0 micrograms/kg/injection, schedule: Q07DX002 (ip), vehicle: saline): 102 % of control; T/C (endpoint: median survival time, dose: 1.25 mg/kg/injection, schedule: Q01DX009 (ip), vehicle: saline): 157 % of control; T/C (endpoint: median survival time, dose: 5.0 mg/kg/injection, schedule: Q01DX009 (ip), vehicle: saline): 122 % of control; T/C (endpoint: median survival time, dose: 10.0 mg/kg/injection, schedule: Q01DX009 (ip), vehicle: saline): 105 % of control and 114 % of control

**Q.** Which results are given for `O=C1c2ccccc2CC1(Br)C(Br)c1ccccc1` (stereo not drawn)?
**A.** T/C (endpoint: mean survival time, dose: 100.0 mg/kg/injection, schedule: Q01DX009 (ip), vehicle: saline sonified): 99 % of control; T/C (endpoint: mean survival time, dose: 100.0 mg/kg/injection, schedule: Q01DX009 (ip), vehicle: saline with Tween-80): 96 % of control; T/C (endpoint: mean survival time, dose: 100.0 mg/kg/injection, schedule: Q04DX003 (ip), vehicle: Klucel (hydroxypropylcellulose) (HPC)): 104 % of control; T/C [1]: 107 % of control; T/C (endpoint: mean survival time, dose: 200.0 mg/kg/injection, schedule: Q01DX009 (ip), vehicle: saline sonified): 95 % of control; T/C (endpoint: mean survival time, dose: 200.0 mg/kg/injection, schedule: Q01DX009 (ip), vehicle: saline with Tween-80): 91 % of control; T/C (endpoint: mean survival time, dose: 200.0 mg/kg/injection, schedule: Q04DX003 (ip), vehicle: Klucel (hydroxypropylcellulose) (HPC)): 101 % of control; T/C [2]: 103 % of control; T/C (endpoint: mean survival time, dose: 400.0 mg/kg/injection, schedule: Q01DX009 (ip), vehicle: saline sonified): 94 % of control; T/C (endpoint: mean survival time, dose: 400.0 mg/kg/injection, schedule: Q01DX009 (ip), vehicle: saline with Tween-80): 89 % of control; T/C (endpoint: mean survival time, dose: 400.0 mg/kg/injection, schedule: Q04DX003 (ip), vehicle: Klucel (hydroxypropylcellulose) (HPC)): 98 % of control; T/C (endpoint: mean survival time, dose: 400.0 mg/kg/injection, schedule: Q04DX003 (ip), vehicle: saline with Tween-80): 104 % of control

**Q.** Which results are given for `CC(=O)Oc1c(C)cc(O)c2ccccc12`?
**A.** T/C (endpoint: mean survival time, dose: 50.0 mg/kg/injection, schedule: Q01DX009 (ip), vehicle: Klucel (hydroxypropylcellulose) (HPC)): 96 % of control; T/C (endpoint: mean survival time, dose: 100.0 mg/kg/injection, schedule: Q01DX009 (ip), vehicle: Klucel (hydroxypropylcellulose) (HPC)): 111 % of control; T/C (endpoint: mean survival time, dose: 200.0 mg/kg/injection, schedule: Q01DX009 (ip), vehicle: Klucel (hydroxypropylcellulose) (HPC)): 100 % of control

**Q.** What does the source list for `CC1(C)CN1C1=C(F)C(=O)C(N2CC2(C)C)=C(F)C1=O`?
**A.** T/C (endpoint: mean survival time, dose: 6.25 mg/kg/injection, schedule: Q04DX003 (ip), vehicle: saline): 100 % of control; T/C (endpoint: mean survival time, dose: 12.5 mg/kg/injection, schedule: Q04DX003 (ip), vehicle: saline): 104 % of control; T/C (endpoint: mean survival time, dose: 25.0 mg/kg/injection, schedule: Q04DX003 (ip), vehicle: saline): 104 % of control

**Q.** Which results are given for `CCc1cccc(CC)c1NC(=O)CS`?
**A.** T/C [1]: 94 % of control; T/C [2]: 95 % of control
